Assay [1] concerns the target T1, Protein cereblon/Signal transducer and activator of transcription 6 (Homo sapiens, UniProt P42226+Q96SW2). The experiment in a line: PROTAC activity at STAT6/CRBN in human MV4-11 cells assessed as reduction in STAT6 level at 5 uM incubated for 12 hrs by Western blot analysis relative to control. In kind it is cell-based.
Target sequence in this assay (Q96SW2 whole entry partner, one chain of several): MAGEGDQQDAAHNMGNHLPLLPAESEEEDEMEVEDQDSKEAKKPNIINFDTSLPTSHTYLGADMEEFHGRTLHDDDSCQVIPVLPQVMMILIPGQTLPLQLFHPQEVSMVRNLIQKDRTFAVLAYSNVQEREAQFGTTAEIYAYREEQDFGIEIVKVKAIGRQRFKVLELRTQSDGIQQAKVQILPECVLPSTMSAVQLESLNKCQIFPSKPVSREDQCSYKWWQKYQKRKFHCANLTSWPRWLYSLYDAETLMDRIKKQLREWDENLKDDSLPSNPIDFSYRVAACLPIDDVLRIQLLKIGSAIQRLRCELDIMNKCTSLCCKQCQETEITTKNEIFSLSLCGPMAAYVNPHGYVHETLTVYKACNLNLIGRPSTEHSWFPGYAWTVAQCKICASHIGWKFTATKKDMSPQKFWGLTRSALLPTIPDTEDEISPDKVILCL
Assay [2] has as its target T1, Protein cereblon/Signal transducer and activator of transcription 6. The experiment in a line: PROTAC activity at STAT6/CRBN in human MV4-11 cells assessed as reduction in STAT6 level incubated for 12 hrs by Western blot analysis. In kind it is cell-based. On the technique in general: A western blot detects proteins with antibodies after separation by electrophoresis.
Target sequence in this assay (Q96SW2 whole entry, one chain of several): as the sequence (Q96SW2 whole entry partner, one chain of several) above

In assay [3] the target is T2, Signal transducer and activator of transcription 6 (Homo sapiens, UniProt P42226).
T2 sequence (P42226 whole entry): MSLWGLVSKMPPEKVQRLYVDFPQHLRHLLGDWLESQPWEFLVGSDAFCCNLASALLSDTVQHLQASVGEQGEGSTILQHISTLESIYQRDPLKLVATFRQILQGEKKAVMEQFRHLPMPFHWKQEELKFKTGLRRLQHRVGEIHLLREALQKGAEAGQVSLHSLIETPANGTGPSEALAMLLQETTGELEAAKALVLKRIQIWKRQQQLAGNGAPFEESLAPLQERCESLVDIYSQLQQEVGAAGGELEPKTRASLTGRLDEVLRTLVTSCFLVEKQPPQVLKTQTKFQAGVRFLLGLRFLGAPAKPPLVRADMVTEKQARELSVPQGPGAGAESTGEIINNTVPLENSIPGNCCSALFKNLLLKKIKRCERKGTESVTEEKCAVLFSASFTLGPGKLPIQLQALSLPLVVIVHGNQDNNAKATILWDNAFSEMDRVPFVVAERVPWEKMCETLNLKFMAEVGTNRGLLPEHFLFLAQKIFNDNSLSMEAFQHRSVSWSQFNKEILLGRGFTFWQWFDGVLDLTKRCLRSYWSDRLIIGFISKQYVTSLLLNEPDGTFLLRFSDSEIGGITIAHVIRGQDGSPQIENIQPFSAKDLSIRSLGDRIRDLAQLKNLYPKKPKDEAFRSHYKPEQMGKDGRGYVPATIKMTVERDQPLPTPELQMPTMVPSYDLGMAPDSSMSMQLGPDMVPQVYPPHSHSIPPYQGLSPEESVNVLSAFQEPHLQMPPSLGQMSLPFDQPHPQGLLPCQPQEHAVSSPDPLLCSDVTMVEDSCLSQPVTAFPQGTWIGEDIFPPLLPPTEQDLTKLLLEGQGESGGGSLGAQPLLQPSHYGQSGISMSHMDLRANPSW
The experiment in a line: Binding affinity to N-terminal his6-tgged STAT6 (unknown origin) (113 to 658 residues) assessed as inhibition constant incubated for 1 hr by fluorescence polarization assay. (In general: Fluorescence polarisation rises when a labelled molecule tumbles more slowly, as on binding a larger partner.)

The target of assay [4] is T3, Signal transducer and activator of transcription 5B (Homo sapiens, UniProt P51692).
T3 sequence (P51692 whole entry): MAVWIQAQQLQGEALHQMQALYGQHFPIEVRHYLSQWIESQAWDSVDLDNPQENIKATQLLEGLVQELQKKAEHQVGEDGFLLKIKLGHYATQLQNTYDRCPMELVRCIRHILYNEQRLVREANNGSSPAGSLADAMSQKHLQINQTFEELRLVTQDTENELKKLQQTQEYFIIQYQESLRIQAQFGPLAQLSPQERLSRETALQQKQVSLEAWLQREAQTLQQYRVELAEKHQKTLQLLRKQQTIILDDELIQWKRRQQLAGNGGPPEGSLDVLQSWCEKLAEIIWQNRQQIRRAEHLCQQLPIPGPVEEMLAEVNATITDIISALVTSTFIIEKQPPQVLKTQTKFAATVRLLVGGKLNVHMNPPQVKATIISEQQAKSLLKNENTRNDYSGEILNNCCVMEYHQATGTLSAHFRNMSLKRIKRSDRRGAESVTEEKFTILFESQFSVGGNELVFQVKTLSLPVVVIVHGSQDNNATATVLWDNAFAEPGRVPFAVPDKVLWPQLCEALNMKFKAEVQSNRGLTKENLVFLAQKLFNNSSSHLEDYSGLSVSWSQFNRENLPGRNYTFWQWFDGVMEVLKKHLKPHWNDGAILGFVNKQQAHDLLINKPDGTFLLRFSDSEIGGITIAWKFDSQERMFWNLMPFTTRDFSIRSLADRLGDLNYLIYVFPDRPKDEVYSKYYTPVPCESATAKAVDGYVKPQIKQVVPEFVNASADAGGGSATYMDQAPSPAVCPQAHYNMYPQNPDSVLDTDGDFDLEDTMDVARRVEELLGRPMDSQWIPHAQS
The experiment in a line: Binding affinity to STAT5B (unknown origin) assessed as inhibition constant incubated for 1 hr by fluorescence polarization assay.

For orientation: Emax means the maximal effect, on the per cent scale that the assay sets. Regarding `CC(C)(C)[C@H](NC(=O)c1cc2cc(C(F)(F)P(=O)(O)O)ccc2s1)C(=O)N1C[C@@H](NC(=O)CCCCCCC#Cc2cccc3c2CN(C2CCC(=O)NC2=O)C3=O)C[C@H]1C(=O)N1CCO[C@H](c2ccccc2)C1` (stereo partly drawn), the Emax in assay [1] is greater than 95%. For the same molecule, the DC50 in assay [2] is 250 nM.
By Ki is commonly meant the equilibrium dissociation constant of an inhibitor or competing ligand from its target. For the molecule `O=C(N[C@@H](Cc1ccccc1)C(=O)N1CCC[C@H]1C(=O)N1CCO[C@H](c2ccccc2)C1)c1cc2cc(C(F)(F)P(=O)(O)O)ccc2s1`, the Ki in assay [3] was 340 nM.
`CC(C)(C)[C@H](NC(=O)c1cc2cc(C(F)(F)P(=O)(O)O)ccc2s1)C(=O)N1C[C@@H](NC(=O)CCCCC#Cc2cccc3c2CN(C2CCC(=O)NC2=O)C3=O)C[C@H]1C(=O)N1CCO[C@H](c2ccccc2)C1` (stereo partly drawn): the Emax in assay [1] is greater than 95%. The DC50 in assay [2] came to 120 nM.
Take `CC(=O)N[C@H]1C[C@@H](C(=O)N2CCO[C@H](c3ccccc3)C2)N(C(=O)[C@@H](NC(=O)c2cc3cc(C(F)(F)P(=O)(O)O)ccc3s2)C(C)(C)C)C1`: the Ki in assay [4] was 590 nM.
For the molecule `CO[C@H]1C[C@@H](C(=O)N2CCO[C@H](c3ccccc3)C2)N(C(=O)[C@@H](NC(=O)c2cc3cc(C(F)(F)P(=O)(O)O)ccc3s2)C(C)(C)C)C1`, the Ki in assay [3] amounted to 6 nM.
Same read-out and setting: in the case of `O=C(N[C@@H](CC1CCNCC1)C(=O)N1CCC[C@H]1C(=O)N1CCO[C@H](c2ccccc2)C1)c1cc2cc(C(F)(F)P(=O)(O)O)ccc2s1` it was 180 nM; in that of `CC(C)(C)[C@H](NC(=O)c1cc2cc(C(F)(F)P(=O)(O)O)ccc2s1)C(=O)N1CCCC[C@H]1C(=O)N1CCC[C@H](c2ccccc2)C1`, 160 nM.
On the same count and under the same terms, with `CC(C)(C)[C@H](NC(=O)c1cc2cc(C(F)(F)P(=O)(O)O)ccc2s1)C(=O)N1CCCC[C@H]1C(=O)N1CCO[C@H](c2ccccc2)C1` the figure was 110 nM.
For `O=C(N[C@@H](Cc1ccc(Br)cc1)C(=O)N1CCC[C@H]1C(=O)N1CCO[C@H](c2ccccc2)C1)c1cc2cc(C(F)(F)P(=O)(O)O)ccc2s1`, the inhibition constant (Ki) in assay [3] came to 170 nM.
Take `CC(C)(C)[C@H](NC(=O)c1cc2cc(C(F)(F)P(=O)(O)O)ccc2s1)C(=O)N1C[C@@H](OCCCCCCNc2cccc3c2CN(C2CCC(=O)NC2=O)C3=O)C[C@H]1C(=O)N1CCO[C@H](c2ccccc2)C1` (stereo partly drawn): the Emax in assay [1] was greater than 95%. Moreover, the DC50 in assay [2] is 60 nM.
Regarding `CC(C)(C)[C@H](NC(=O)c1cc2cc(C(F)(F)P(=O)(O)O)ccc2s1)C(=O)N1C[C@@H](NC(=O)CCCC#Cc2cccc3c2CN(C2CCC(=O)NC2=O)C3=O)C[C@H]1C(=O)N1CCO[C@H](c2ccccc2)C1` (stereo partly drawn), the Emax in assay [1] is greater than 95%. The DC50 in assay [2] was determined as 260 nM.
Regarding `CC(C)(C)[C@H](NC(=O)c1cc2cc(C(F)(F)P(=O)(O)O)ccc2s1)C(=O)N1Cc2ccccc2C[C@H]1C(=O)N1CCO[C@H](c2ccccc2)C1`, the Ki in assay [3] was 83 nM.
On the same count and under the same terms, with `CN1CCC(C[C@H](NC(=O)c2cc3cc(C(F)(F)P(=O)(O)O)ccc3s2)C(=O)N2CCC[C@H]2C(=O)N2CCO[C@H](c3ccccc3)C2)CC1` the figure was 250 nM; with `CC(C)(C)c1ccc(C[C@H](NC(=O)c2cc3cc(C(F)(F)P(=O)(O)O)ccc3s2)C(=O)N2CCC[C@H]2C(=O)N2CCO[C@H](c3ccccc3)C2)cc1`, 160 nM.
Still for that read-out and setting: with `O=C(N[C@H](C(=O)N1CCC[C@H]1C(=O)N1CCO[C@H](c2ccccc2)C1)C1CCNCC1)c1cc2cc(C(F)(F)P(=O)(O)O)ccc2s1` the figure was 260 nM.
Regarding `CC(C)(C)[C@H](NC(=O)c1cc2cc(C(F)(F)P(=O)(O)O)ccc2s1)C(=O)N1C[C@@H](NC(=O)CCCCCC#Cc2ccc3c(c2)CN(C2CCC(=O)NC2=O)C3=O)C[C@H]1C(=O)N1CCO[C@H](c2ccccc2)C1` (stereo partly drawn), the maximal response (Emax) in assay [1] is greater than 90%. The DC50 in assay [2] is 200 nM.
Consider `C/C(=C\C(=O)N[C@H](C(=O)N1CCC[C@H]1C(=O)N1CCc2ccccc2C1)C(C)(C)C)c1ccc(C(F)(F)P(=O)(O)O)cc1`, for which the Ki in assay [3] turned out to be 3500 nM.
Same read-out and setting: in the case of `CC(C)(C)[C@H](NC(=O)c1cc2cc(C(F)(F)P(=O)(O)O)ccc2s1)C(=O)N1Cc2ccccc2[C@H]1C(=O)N1CCC[C@H](c2ccccc2)C1` it was 42 nM.
For `CC(C)(C)[C@H](NC(=O)c1cc2cc(C(F)(F)P(=O)(O)O)ccc2s1)C(=O)N1C[C@@H](OCCCCC#Cc2cccc3c2CN(C2CCC(=O)NC2=O)C3=O)C[C@H]1C(=O)N1CCO[C@H](c2ccccc2)C1` (stereo partly drawn), the Emax in assay [1] is greater than 95%. Moreover, in assay [2], the DC50 worked out at 50 nM.
Take `CC(C)(O)[C@H](NC(=O)c1cc2cc(C(F)(F)P(=O)(O)O)ccc2s1)C(=O)N1CCC[C@H]1C(=O)N1CCO[C@H](c2ccccc2)C1`: the Ki in assay [3] was found to be 120 nM.
With `CC(C)(C)[C@H](NC(=O)c1cc2cc(C(F)(F)P(=O)(O)O)ccc2s1)C(=O)N1C[C@@H](OCCCCCCC#Cc2cccc3c2CN(C2CCC(=O)NC2=O)C3=O)C[C@H]1C(=O)N1CCO[C@H](c2ccccc2)C1` (stereo partly drawn), in assay [1], the Emax is greater than 95%. In assay [2], the DC50 is 20 nM.
As for `CC[C@H](NC(=O)c1cc2cc(C(F)(F)P(=O)(O)O)ccc2s1)C(=O)N1CCC[C@H]1C(=O)N1CCO[C@H](c2ccccc2)C1`, the Ki in assay [3] worked out at 160 nM.
Turning to `O=C(N[C@@H](Cc1ccc2ccccc2c1)C(=O)N1CCC[C@H]1C(=O)N1CCO[C@H](c2ccccc2)C1)c1cc2cc(C(F)(F)P(=O)(O)O)ccc2s1`, the Ki in assay [3] was 250 nM.
Take `CC(C)(C)[C@H](NC(=O)c1cc2cc(C(F)(F)P(=O)(O)O)ccc2s1)C(=O)N1CCC[C@H]1C(=O)N1Cc2ccccc2C1`: the Ki in assay [4] is greater than 5000 nM.
`O=C(N[C@H](C(=O)N1CCC[C@H]1C(=O)N1CCO[C@H](c2ccccc2)C1)C1CCCCC1)c1cc2cc(C(F)(F)P(=O)(O)O)ccc2s1`: in assay [3], the Ki was 90 nM.
With `CC(C)(C)[C@H](NC(=O)c1cc2cc(C(F)(F)P(=O)(O)O)ccc2s1)C(=O)N1C[C@@H](OCCCCCCCC#Cc2cccc3c2CN(C2CCC(=O)NC2=O)C3=O)C[C@H]1C(=O)N1CCO[C@H](c2ccccc2)C1` (stereo partly drawn), the maximal response (Emax) in assay [1] was greater than 95%. Moreover, the DC50 in assay [2] came to 60 nM.
`CC(C)(C)[C@H](NC(=O)c1cc2cc(C(F)(F)P(=O)(O)O)ccc2s1)C(=O)N1CCCCC[C@H]1C(=O)N1CCO[C@H](c2ccccc2)C1`: in assay [3], the Ki came out at 120 nM.
`CC(C)(C)[C@H](NC(=O)c1cc2cc(C(F)(F)P(=O)(O)O)ccc2s1)C(=O)N1C[C@@H](NC(=O)CCCCCC#Cc2cccc3c2CN(C2CCC(=O)NC2=O)C3=O)C[C@H]1C(=O)N1CCO[C@H](c2ccccc2)C1` (stereo partly drawn): the Emax in assay [1] is greater than 95%. Besides, in assay [2], the DC50 stood at 60 nM.
For `CC(C)(C)[C@H](NC(=O)c1cc2cc(C(F)(F)P(=O)(O)O)ccc2s1)C(=O)N1Cc2ccccc2C[C@H]1C(=O)N1CCC[C@H](c2ccccc2)C1`, the Ki in assay [3] was determined as 190 nM.
In the case of `O=C(N[C@H](C(=O)N1CCC[C@H]1C(=O)N1CCO[C@H](c2ccccc2)C1)C1CC1)c1cc2cc(C(F)(F)P(=O)(O)O)ccc2s1`, the Ki in assay [3] is 120 nM.
On the same count and under the same terms, with `CC(C)(C)[C@H](NC(=O)c1cc2cc(C(F)(F)P(=O)(O)O)ccc2s1)C(=O)N1CCCCC[C@H]1C(=O)N1CCC[C@H](c2ccccc2)C1` the figure was 200 nM.
Consider `O=C(N[C@@H](Cc1ccncc1)C(=O)N1CCC[C@H]1C(=O)N1CCO[C@H](c2ccccc2)C1)c1cc2cc(C(F)(F)P(=O)(O)O)ccc2s1`, for which the Ki in assay [3] was 450 nM.
With `COc1ccc(C[C@H](NC(=O)c2cc3cc(C(F)(F)P(=O)(O)O)ccc3s2)C(=O)N2CCC[C@H]2C(=O)N2CCO[C@H](c3ccccc3)C2)cc1`, the Ki in assay [3] was found to be 210 nM.
Still for that read-out and setting: in the case of `CC(C)(C)[C@H](NC(=O)c1cc2cc(C(F)(F)P(=O)(O)O)ccc2s1)C(=O)N1Cc2ccccc2[C@H]1C(=O)N1CCO[C@H](c2ccccc2)C1` it was 33 nM.

The values are drawn from ChEMBL document CHEMBL6103537 (J Med Chem, 2025).
